Measurements published in the NIST ThermoML archive (doi:10.1016/j.jct.2013.11.038).
Several values for one entry are separate records, joined by “and”; a condition that tells them apart may be missing. Equal values may be shown once. Numbers after ± are expanded uncertainties.

Legend:
[1] = Molar enthalpy of transition or fusion; conditions: Crystal; DSC
[2] = molar heat capacity at constant pressure; conditions: 101.33 kPa, Crystal, Large sample (1 g) DSC
[3] = Crystal; for vapor or sublimation pressure: Calculated from knudsen effusion weight loss; for Normal melting temperature: DTA

Q: What does the source list for `O=C1c2ccccc2-c2cccc3cccc1c23` [7H-benz[de]anthracen-7-one]?
A: Molar enthalpy of transition or fusion [1]: 6.3 ± 0.179 kcal/mol; molar heat capacity at constant pressure ([2]; 300.47 K): 257.2 ± 11 J/K/mol; molar heat capacity at constant pressure ([2]; 305.43 K): 262.2 ± 11 J/K/mol; molar heat capacity at constant pressure ([2]; 310.4 K): 265.7 ± 11 J/K/mol; molar heat capacity at constant pressure ([2]; 315.36 K): 270.5 ± 12 J/K/mol; molar heat capacity at constant pressure ([2]; 320.32 K): 275 ± 12 J/K/mol; vapor or sublimation pressure ([3]; 360.04 K): 5.7e-06 ± 3e-07 kPa [middle of 4 runs]; vapor or sublimation pressure ([3]; 369.32 K): 1.67e-05 ± 9e-07 kPa [middle of 4 runs]; vapor or sublimation pressure ([3]; 380.12 K): 5.13e-05 ± 2.6e-06 kPa [middle of 6 runs]; vapor or sublimation pressure ([3]; 390.32 K): 0.0001425 ± 7.3e-06 kPa [middle of 6 runs]; vapor or sublimation pressure ([3]; 400.17 K): 0.0003806 ± 1.9e-05 kPa [middle of 7 runs]; vapor or sublimation pressure ([3]; 410.37 K): 0.0009607 ± 4.8e-05 kPa [middle of 6 runs]; Normal melting temperature [3]: 173.63 ± 2 °C

Q: With `O=C(O)c1ccccc1` [benzoic acid] as the molecule, how does the “Molar enthalpy of transition or fusion” value [1] read?
A: 4.28 ± 0.127 kcal/mol

Q: And the “molar heat capacity at constant pressure” value ([2]; 308.15 K)?
A: 152.1 ± 6.5 J/K/mol

Q: What about the “molar heat capacity at constant pressure” value ([2]; 318.15 K) of the same molecule?
A: 157.3 ± 6.7 J/K/mol

Q: What about the “molar heat capacity at constant pressure” value ([2]; 328.15 K) of the same molecule?
A: 161.6 ± 6.9 J/K/mol

Q: And the “molar heat capacity at constant pressure” value ([2]; 338.15 K)?
A: 166.9 ± 7.1 J/K/mol

Q: And the “molar heat capacity at constant pressure” value ([2]; 348.15 K)?
A: 170.8 ± 7.2 J/K/mol

Q: And the “molar heat capacity at constant pressure” value ([2]; 358.15 K)?
A: 175.6 ± 7.5 J/K/mol

Q: What about the “molar heat capacity at constant pressure” value ([2]; 368.15 K) of the same molecule?
A: 180 ± 7.6 J/K/mol

Q: And the “molar heat capacity at constant pressure” value ([2]; 378.15 K)?
A: 186.9 ± 7.9 J/K/mol

Q: What about the “vapor or sublimation pressure” value ([3]; 269.3 K) of the same molecule?
A: 2.1e-06 ± 1e-07 kPa and 2.2e-06 ± 1e-07 kPa

Q: And the “vapor or sublimation pressure” value ([3]; 275.04 K)?
A: 5.1e-06 ± 3e-07 kPa and 5e-06 ± 3e-07 kPa and 4.9e-06 ± 3e-07 kPa

Q: And the “vapor or sublimation pressure” value ([3]; 281.33 K)?
A: 1.24e-05 ± 7e-07 kPa [middle of 4 runs]

Q: What about the “vapor or sublimation pressure” value ([3]; 287.28 K) of the same molecule?
A: 2.71e-05 ± 1.4e-06 kPa [middle of 7 runs]

Q: What about the “vapor or sublimation pressure” value ([3]; 293.19 K) of the same molecule?
A: 5.78e-05 ± 3e-06 kPa [middle of 6 runs]

Q: What about the “vapor or sublimation pressure” value ([3]; 299.18 K) of the same molecule?
A: 0.0001196 ± 6.2e-06 kPa [middle of 7 runs]

Q: And the “vapor or sublimation pressure” value ([3]; 305.18 K)?
A: 0.0002454 ± 1.3e-05 kPa [middle of 7 runs]

Q: And the “vapor or sublimation pressure” value ([3]; 311.17 K)?
A: 0.0004925 ± 2.5e-05 kPa [middle of 7 runs]

Q: And the “vapor or sublimation pressure” value ([3]; 317.13 K)?
A: 0.0009533 ± 4.8e-05 kPa [middle of 6 runs]

Q: And the Normal melting temperature [3]?
A: 122.22 ± 2 °C

Q: With `O=C(Oc1ccccc1)Oc1ccccc1` [diphenyl carbonate] as the molecule, how does the “vapor or sublimation pressure” value ([3]; 302.18 K) read?
A: 2.22e-05 ± 1.2e-06 kPa [middle of 5 runs]

Q: And the “vapor or sublimation pressure” value ([3]; 308.17 K)?
A: 5.05e-05 ± 2.6e-06 kPa [middle of 5 runs]

Q: What about the “vapor or sublimation pressure” value ([3]; 314.32 K) of the same molecule?
A: 0.0001144 ± 5.9e-06 kPa [middle of 7 runs]

Q: What about the “vapor or sublimation pressure” value ([3]; 320.25 K) of the same molecule?
A: 0.0002424 ± 1.3e-05 kPa [middle of 7 runs]

Q: And the “vapor or sublimation pressure” value ([3]; 326.23 K)?
A: 0.0005075 ± 2.6e-05 kPa [middle of 7 runs]

Q: What about the “vapor or sublimation pressure” value ([3]; 332.24 K) of the same molecule?
A: 0.001043 ± 0.00011 kPa [middle of 6 runs]

Q: Which “Molar enthalpy of transition or fusion” value [1] does the source give for `CCCCCCCCCCCCCCCCCC` [octadecane] here?
A: 14.7 ± 0.406 kcal/mol

Q: What about the “molar heat capacity at constant pressure” value ([2]; 283.85 K) of the same molecule?
A: 448.6 ± 19 J/K/mol

Q: And the “molar heat capacity at constant pressure” value ([2]; 285.5 K)?
A: 455.2 ± 19 J/K/mol

Q: What about the “molar heat capacity at constant pressure” value ([2]; 287.15 K) of the same molecule?
A: 460.7 ± 20 J/K/mol

Q: And the “molar heat capacity at constant pressure” value ([2]; 288.81 K)?
A: 467.3 ± 20 J/K/mol

Q: And the “molar heat capacity at constant pressure” value ([2]; 290.46 K)?
A: 472.4 ± 20 J/K/mol

Q: What about the “vapor or sublimation pressure” value ([3]; 286.34 K) of the same molecule?
A: 2e-06 ± 1e-07 kPa [middle of 4 runs]

Q: And the “vapor or sublimation pressure” value ([3]; 289.28 K)?
A: 3.1e-06 ± 2e-07 kPa [middle of 4 runs]

Q: What about the “vapor or sublimation pressure” value ([3]; 292.27 K) of the same molecule?
A: 5.9e-06 ± 3e-07 kPa [middle of 4 runs]

Q: And the “vapor or sublimation pressure” value ([3]; 295.17 K)?
A: 1.02e-05 ± 6e-07 kPa and 1.07e-05 ± 6e-07 kPa and 1.01e-05 ± 6e-07 kPa

Q: And the “vapor or sublimation pressure” value ([3]; 297.99 K)?
A: 1.9e-05 ± 1e-06 kPa [middle of 5 runs]

Q: What about the Normal melting temperature [3] of the same molecule?
A: 28.31 ± 2 °C
